Measured values published in patent publication US8933132B2, “Tricyclic substituted benzenesulfonamide piperazine derivatives as CAV2.2 calcium channel blockers” (Convergence Pharmaceuticals Limited, priority 2011, dated 2015).

The compounds below were run against T1, hCav2.2 (Homo sapiens, UniProt Q00975) (assay: hCav2.2 assay (IonWorks planar array electrophysiology, stable HEK293 cell line)). Settings: inhibition of current elicited by the 1st depolarising pulse by 50%; HEK293 cells expressing human Cav2.2 α1B/β3/α2δ1; read-out: tonic pIC50 (converted).
T1 construct: expressed in transfected cells; plasmids pCIN5-hCav2.2, pCIH-hCav β3, pCIP-α2δ1
T1 sequence (Q00975 whole entry): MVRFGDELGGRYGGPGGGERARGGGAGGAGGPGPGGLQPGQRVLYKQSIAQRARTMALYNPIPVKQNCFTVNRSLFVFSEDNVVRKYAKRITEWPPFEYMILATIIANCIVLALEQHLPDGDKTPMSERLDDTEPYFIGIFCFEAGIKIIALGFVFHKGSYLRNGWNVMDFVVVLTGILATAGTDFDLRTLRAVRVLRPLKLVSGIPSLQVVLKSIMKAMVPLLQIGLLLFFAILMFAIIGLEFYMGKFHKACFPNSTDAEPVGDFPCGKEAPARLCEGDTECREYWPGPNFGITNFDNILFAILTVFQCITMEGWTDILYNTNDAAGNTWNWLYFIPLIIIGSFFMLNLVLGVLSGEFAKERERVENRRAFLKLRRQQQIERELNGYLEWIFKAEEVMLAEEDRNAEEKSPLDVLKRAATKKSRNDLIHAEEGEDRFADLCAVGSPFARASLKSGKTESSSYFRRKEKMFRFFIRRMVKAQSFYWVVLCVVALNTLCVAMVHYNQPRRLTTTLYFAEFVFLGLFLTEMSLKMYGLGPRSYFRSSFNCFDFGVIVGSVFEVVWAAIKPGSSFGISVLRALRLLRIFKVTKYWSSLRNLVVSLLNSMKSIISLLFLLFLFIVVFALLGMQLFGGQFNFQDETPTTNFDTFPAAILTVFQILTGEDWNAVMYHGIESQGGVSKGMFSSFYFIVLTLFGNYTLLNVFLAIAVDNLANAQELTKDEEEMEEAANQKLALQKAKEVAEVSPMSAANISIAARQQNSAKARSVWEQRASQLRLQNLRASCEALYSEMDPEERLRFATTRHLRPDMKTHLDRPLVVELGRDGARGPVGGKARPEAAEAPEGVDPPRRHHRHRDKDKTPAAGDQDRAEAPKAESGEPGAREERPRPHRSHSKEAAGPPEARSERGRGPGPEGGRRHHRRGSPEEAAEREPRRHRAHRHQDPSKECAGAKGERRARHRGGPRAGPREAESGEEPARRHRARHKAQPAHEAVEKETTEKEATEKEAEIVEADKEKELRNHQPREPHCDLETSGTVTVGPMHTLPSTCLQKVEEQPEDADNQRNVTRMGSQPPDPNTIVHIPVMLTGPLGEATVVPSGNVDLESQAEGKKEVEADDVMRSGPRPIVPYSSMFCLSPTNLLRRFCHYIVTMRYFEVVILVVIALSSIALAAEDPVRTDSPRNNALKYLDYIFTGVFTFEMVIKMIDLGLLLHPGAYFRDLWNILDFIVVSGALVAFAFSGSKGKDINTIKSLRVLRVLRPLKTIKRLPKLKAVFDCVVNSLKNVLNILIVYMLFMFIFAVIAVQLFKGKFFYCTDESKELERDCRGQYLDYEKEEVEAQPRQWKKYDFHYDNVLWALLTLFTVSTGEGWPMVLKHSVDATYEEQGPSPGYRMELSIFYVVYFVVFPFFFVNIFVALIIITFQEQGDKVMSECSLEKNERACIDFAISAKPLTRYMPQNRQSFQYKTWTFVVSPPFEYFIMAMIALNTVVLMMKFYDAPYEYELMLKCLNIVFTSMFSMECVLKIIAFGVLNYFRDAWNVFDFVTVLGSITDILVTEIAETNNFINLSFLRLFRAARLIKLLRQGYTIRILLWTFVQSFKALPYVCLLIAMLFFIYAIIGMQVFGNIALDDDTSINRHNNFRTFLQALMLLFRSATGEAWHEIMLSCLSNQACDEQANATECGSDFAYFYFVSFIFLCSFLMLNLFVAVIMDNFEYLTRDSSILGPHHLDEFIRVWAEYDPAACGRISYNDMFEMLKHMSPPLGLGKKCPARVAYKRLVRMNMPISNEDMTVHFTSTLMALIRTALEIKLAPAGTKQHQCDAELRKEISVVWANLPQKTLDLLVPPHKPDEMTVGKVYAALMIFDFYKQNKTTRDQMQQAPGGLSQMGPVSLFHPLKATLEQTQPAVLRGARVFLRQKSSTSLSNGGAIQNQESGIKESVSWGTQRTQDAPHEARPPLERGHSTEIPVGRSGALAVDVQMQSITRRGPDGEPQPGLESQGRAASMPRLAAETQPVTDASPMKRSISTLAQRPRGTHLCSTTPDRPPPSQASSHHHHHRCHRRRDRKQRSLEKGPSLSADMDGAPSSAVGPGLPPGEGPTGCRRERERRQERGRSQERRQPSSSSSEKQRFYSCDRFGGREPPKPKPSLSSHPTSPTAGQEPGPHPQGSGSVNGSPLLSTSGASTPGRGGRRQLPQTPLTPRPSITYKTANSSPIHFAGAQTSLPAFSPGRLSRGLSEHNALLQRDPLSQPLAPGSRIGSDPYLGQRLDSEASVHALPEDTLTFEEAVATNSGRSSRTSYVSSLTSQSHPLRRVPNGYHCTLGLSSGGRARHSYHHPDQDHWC
Format: cell-based
Procedure: Compounds as defined in the first to third aspects may be tested for in vitro biological activity in the hCav2.2 assay in accordance with the following studies:
Stable cell lines expressing the human Cav2.2 α (α1B) subunit, along with the human β3 and α2δ1 auxiliary subunits were created following sequential transfection and selection of human embryonic kidney (HEK293) cells. HEK293 cells were cultured in Dulbecco's modified Eagles media/F12 media (Invitrogen, Cat #041-95750V) containing 10% fetal bovine serum, with added L-glutamine (2 mM; Invitrogen, Cat #25030-024) and non-essential amino acids (5%; Invitrogen, Cat #11140-035). Initially HEK293 cells were transfected with two plasmid vectors for expression of the hCav2.2 α subunit (pCIN5-hCav2.2 which carries a neomycin resistance marker) and the hCav β3 subunit (pCIH-hCav β3 which carries a hygromycin resistance marker). Clonal cell lines were isolated following selection in media supplemented with 0.4 mg ml^−1 Geneticin G418 (Invitrogen, Cat #10131-027) and 0.1 mg ml^−1 hygromycin (Invitrogen, Cat #10687-010). These clonal cell lines were assessed for Cav2.2 α/β3-mediated current expression using the IonWorks planar array electrophysiology technology (described below). A clonal line was identified that gave a reasonable level of functional Cav2.2 α/β3 current expression. This cell line was transfected with a plasmid vector for expression of the human α2δ1 subunit (pCIP-α2δ1 which carries a puromycin resistance marker) and clonal cell lines isolated following selection in media containing 0.62 μg ml^−1 puromycin (Sigma, Cat # P-7255), in addition to 0.4 mg ml^−1 Geneticin G418 and 0.1 mg ml^−1 hygromycin. […]
Currents were recorded at room temperature (21-23° C.) using the IonWorks planar array electrophysiology technology (Molecular Devices Corp.). […] In all experiments, the test pulse protocol was performed in the absence (pre-read) and presence (post-read) of a compound. Pre- and post-reads were separated by a compound addition followed by a 3-3.5 min incubation. […]

Row | IC50 [µM] | Structure (SMILES)
1 | ≤ 31.6 | Cc1cc(C(F)(F)F)ccc1S(=O)(=O)N1CCN2C(=O)c3cccnc3C2C1 (single isomer, unassigned) [24/25 (slower running enantiomer)]
2 | 100 | Cc1ccc2c(n1)C1CN(S(=O)(=O)c3ccc(OC(C)C)cc3)CCN1C2=O (stereo not drawn) [Compound 2, 2-Methyl-9-({4-[(1-methylethyl)oxy]phenyl}sulfonyl)-8,9,10,10a-tetrahydropyrido[2′,3′:3,4]pyrrolo-[1,2-a]pyrazin-5(7H)-one]
3 | ≤ 31.6 | Cc1ccc2c(n1)C1CN(S(=O)(=O)c3ccc(C(F)(F)F)cc3C)CCN1C2=O (stereo not drawn) [Compound 18, 2-Methyl-9-{[2-methyl-4-(trifluoromethyl)phenyl]sulfonyl}-8,9,10,10a-tetrahydropyrido[2′,3′:3,4]pyrrolo-[1,2-a]pyrazin-5(7H)-one]
